From patent US12497597B2, “Methods of generating and expanding hematopoietic stem cells” (CHILDREN'S HOSPITAL MEDICAL CENTER, priority 2019, dated 2025)

Experiments:
Notch activity = test: Notch inhibition in organoid cultures with the γ-secretase inhibitor DAPT; format: cell-based, human
liver organoid cultures = test: Notch dependency test: DLL4 added to Matrigel drops of liver organoid culture with hematopoietic cytokines; format: cell-based, human
Method: Day 7 spheroids were collected by manual pipetting and pelleted by centrifugation. Media was aspirated and cells were embedded in 100% Matrigel by gentle pipetting to homogenize the cell pellet. Optionally, a Notch activator or ligand is added to the Matrigel (e.g. 10 μg/mL, of […]). Alternatively, optionally, UCB cells are added to the Matrigel for co-culture with organoids (e.g. 1,000 UCB cells per 75 μL of Matrigel). 250 μL Matrigel (Corning) was used per well of a 24-well plate of definitive endoderm culture. 75 μL Matrigel drops were made, 1 drop per each well of a fresh 24-well plate (VWR). The plates were placed at 37° C. in an atmosphere of 5% CO2/95% air for 5-15 minutes. After the Matrigel was solidified, Advanced DMEM/F12 with 1×B27, 1×N2, 2 mM L-glutamine, 15 mM HEPES, and 1× penicillin/streptomycin was added to the wells. This media was supplemented with 20 ng/mL BMP4 and 10 ng/mL, FGF2 for 4 days, and then the BMP4 and FGF2 were removed.
Organoids were isolated from Matrigel drops and washed with 1×PBS. HLOs were dissociated to single cells by treatment with Trypsin-EDTA (0.05%, with phenol red, Gibco) for 10 minutes. Cells were washed in DMEM/F12 with 10% FBS and suspended in PBS with 2% FBS. After filtration (e.g. through a 40-50 μm nylon filter), the single cells were subjected to flow cytometry with the following antibodies: anti-CD45-APC (Miltenyl, 130-098-143), anti-CD34-APC/Cy7 (BioLegend, 343513), anti-CD11b-PE/Cy7 (BioLegend, 301322), anti-CD19-BV421 (BioLegend, 302233), anti-CD27-AF700 (BioLegend, 356415), anti-CD43-FITC (BioLegend, 315204). For mouse engraftment experiments, anti-mouse CD45-BV421 (BioLegend, 103133) was used.
RNA was isolated using the RNeasy mini kit (Qiagen). Reverse transcription was carried out using the High-Capacity cDNA. Reverse Transcription Kit (Thermo Fisher) according to manufacturer's protocol. qPCR was carried out in duplicate using TagMan Gene Expression Master Mix (Applied Biosystems) and probes from the Universal Probe Library (Roche) on a QuantStudio 3 Real-Time PCR System (Thermo Fisher). […]

Row | Molecule | HES1 expression (Notch activity; different concentrations of DAPT, 4 days of treatment from day 6, FIG. 10C) | albumin expression (Notch activity; different concentrations of DAPT, 4 days of treatment from day 6, FIG. 10D) | visible erythrocytes (Notch activity; light microscopy, 100 μM DAPT vs DMSO control, 12 days of treatment, FIG. 10A) | production of CD45+ hematopoietic cells (liver organoid cultures; DLL4 1-10 μg/mL in Matrigel drops at organoid seeding, medium with IL-3, IL-34, GM-CSF 100 ng/mL each, FIG. 8) | IL-6 expression (liver organoid cultures; qPCR, organoids at day 18, DLL4 plus cytokines IL-3, IL-34, GM-CSF, FIG. 9A) | albumin expression (liver organoid cultures; qPCR, organoids at day 18, DLL4 plus cytokines IL-3, IL-34, GM-CSF, FIG. 9B)
1 | C[C@H](NC(=O)Cc1cc(F)cc(F)c1)C(=O)N[C@H](C(=O)OC(C)(C)C)c1ccccc1 [DAPT] | decrease | maintaining albumin expression | decrease in visible erythrocytes | – | – | –
2 | DLL4: Notch ligand added to the Matrigel drops during organoid seeding | – | – | – | increased the efficiency of cytokines in producing CD45^+ hematopoietic cells | significant increase | modest decrease
